The values below come from patent publication US4925865A, “Antimycotic agents” (Bayer Aktiengesellschaft, priority 1987, dated 1990).

The subject of one assay is Candida albicans. Put plainly: Antimycotic in vitro activity, serial dilution test, Candida albicans. Particulars: meat extract/dextrose broth, 28-37° C., 24 to 96 hours. The format is cell-based. The method, then:
(§1) The in vitro tests were carried out in the serial dilution test using inocula of microorganisms of approximately 5×10^3 to 10^4 microorganisms/ml of substrate. The nutrient medium used was (a) for dermatophytes and Blastomycetes: Sabouraud's test medium (b) for yeasts: meat extract/dextrose broth. The incubation temperature was 28° C. to 37° C., and the incubation period was 24 to 96 hours with yeasts and 96 hours with dermatophytes and Blastomycetes.

The subject of assay [1] is dermatophytes, Blastomycetes and yeasts. Put plainly: Antimycotic in vitro activity, serial dilution test, overall comparison. The format is cell-based. The method, then:
as §1

The next assay relates to Trichophyton mentagr. Put plainly: Antimycotic in vitro activity, serial dilution test, Trichophyton mentagr. The format is cell-based, Trichophyton mentagrophytes. Particulars: Sabouraud's test medium, 28-37° C., 96 hours. On the procedure:
as §1

For another assay, the system named is Candida. Put plainly: Antimycotic in vivo activity (oral) in mouse candidiasis. On the set-up: species or system mouse (SPF-CF1 type). Particulars: for action compared with compounds (A) and (B): oral 10-100 mg/kg; for Action (survival on the 6th day post infection): oral 10-100 mg/kg one hour before and seven hours after i.v. inoculation. The method, then: Mice of the SPF-CF1 type were intravenously inoculated with 1-2×10^6 logarithmically growing Candida cells, suspended in physiological saline solution. One hour before and seven hours after the inoculation, the animals are in each case orally treated with 10-100 mg/kg of body weight of the preparation. Untreated animals died 3 to 6 days post infection. The survival rate on the 6th day post infection was about 5% in untreated control animals.

The test system of another assay is Aspergillus fumigatus. Description: Antimycotic in vitro activity, serial dilution test, Aspergillus fumigatus. The format is cell-based. The note with it: 28-37° C. On the procedure: as §1
The subject of the next assay is Torulopsis glabrata. Description: Antimycotic in vitro activity, serial dilution test, Torulopsis glabrata. The note with it: Nakaseomyces glabratus; 28-37° C., 24 to 96 hours. The format is cell-based. On the procedure: as §1
The subject of a further assay is Microsporum canis. Put plainly: Antimycotic in vitro activity, serial dilution test, Microsporum canis. It counts as cell-based. Particulars: Sabouraud's test medium, 28-37° C., 96 hours. On the procedure: as §1
In a further assay the test system is mycoses. Particulars: compare EP-OS No.0,180,850; cited from earlier work.

In brackets after ≈: the same amount, converted by molar mass.

A word on the MIC: it is the smallest concentration in the dilution series that meets the test's criterion for growth inhibition. With `CSC1(C(O)(C=Cc2ccc(Cl)cc2)Cn2cncn2)CC1` (stereo not shown) [Compound I-13], the MIC with Candida albicans is 2 µg/mL (≈ 5.95 µM); with Trichophyton mentagr., below 1 µg/mL; against Aspergillus fumigatus, below 1 µg/mL; against Torulopsis glabrata, 2 µg/mL (≈ 5.95 µM); against Microsporum canis, 4 µg/mL (≈ 11.9 µM). The “antimycotic activity compared with compounds (A) and (B)” value in assay [1] is “better antimycotic activity than the compounds (A) and (B)”. In the assay with Candida, the “action compared with compounds (A) and (B)” value is “better action than the compounds (A) and (B)”. Also, the “Action (survival on the 6th day post infection)” value in the assay on Candida is on record as “+++++ (very good action = 90% survival on the 6th day post infection)”.

As for `OC(C=Cc1ccc(Cl)cc1Cl)(Cn1cncn1)C1(Cl)CC1` (stereo not shown) [Compound I-29], the MIC is 16 µg/mL (≈ 44.6 µM) in the assay with Candida albicans; below 1 µg/mL against Trichophyton mentagr.; below 1 µg/mL against Aspergillus fumigatus; 8 µg/mL (≈ 22.3 µM) in the assay on Torulopsis glabrata; below 1 µg/mL in the assay with Microsporum canis. Moreover, the “antimycotic activity compared with compounds (A) and (B)” value in assay [1] was “better antimycotic activity than the compounds (A) and (B)”. In addition, in the assay on Candida, the “action compared with compounds (A) and (B)” value is “better action than the compounds (A) and (B)”. In addition, the “Action (survival on the 6th day post infection)” value in the assay with Candida is “+++ (action = 60% survival on the 6th day post infection)”.

As to `OC(C=Cc1ccc(F)c(Br)c1)(Cn1cncn1)C1(Cl)CC1` (stereo not shown) [Compound I-34], the MIC against Candida albicans is 4 µg/mL (≈ 10.3 µM); in the assay with Trichophyton mentagr., 2 µg/mL (≈ 5.17 µM); against Aspergillus fumigatus, below 1 µg/mL; against Torulopsis glabrata, 4 µg/mL (≈ 10.3 µM). Also, the “antimycotic activity compared with compounds (A) and (B)” value in assay [1] was “better antimycotic activity than the compounds (A) and (B)”. For the same compound, the “action compared with compounds (A) and (B)” value in the assay with Candida is “better action than the compounds (A) and (B)”. Moreover, in the assay with Candida, the “Action (survival on the 6th day post infection)” value was “+++ (action = 60% survival on the 6th day post infection)”.

Consider `OC(Cn1cncn1)(c1ccc(Cl)cc1)C1(Oc2ccc(Cl)cc2Cl)CC1` (stereo not shown) [(B), 1-(4-chlorophenyl)-1-[1-(2,4-dichlorophenoxy)-cycloprop-1-yl]-2-(1,2,4-triazol-1-yl)-ethan-1-ol, reference compound], for which the MIC in the assay with Candida albicans is 16 µg/mL (≈ 37.7 µM); with Trichophyton mentagr., 64 µg/mL (≈ 151 µM); in the assay with Aspergillus fumigatus, above 64 µg/mL; against Torulopsis glabrata, 64 µg/mL (≈ 151 µM). Moreover, the antimycotic properties result in the assay on mycoses is “exhibit antimycotic properties”.

In the case of `OC(CCc1ccc(Cl)cc1)(Cn1cncn1)C1(Cl)CC1` (stereo not shown) [Compound I-1, 2-(1-chlorocyclopropyl)-4-(4-chlorophenyl)-1-(1,2,4-triazol-1-yl)-butan-2-ol], the MIC was 2 µg/mL (≈ 6.13 µM) in the assay with Candida albicans; below 1 µg/mL in the assay with Trichophyton mentagr.; below 1 µg/mL in the assay on Aspergillus fumigatus; below 1 µg/mL against Torulopsis glabrata; below 1 µg/mL against Microsporum canis. In addition, the “antimycotic activity compared with compounds (A) and (B)” value in assay [1] was “better antimycotic activity than the compounds (A) and (B)”. In addition, in the assay on Candida, the “action compared with compounds (A) and (B)” value is “better action than the compounds (A) and (B)”. Besides, the “Action (survival on the 6th day post infection)” value in the assay with Candida is on record as “+++ (action = 60% survival on the 6th day post infection)”.

`OC(C=Cc1ccc(Br)cc1)(Cn1cncn1)C1(Cl)CC1` (stereo not shown) [Compound I-30]: the MIC with Candida albicans was 2 µg/mL (≈ 5.43 µM); in the assay with Trichophyton mentagr. it was below 1 µg/mL; in the assay on Aspergillus fumigatus it was below 1 µg/mL; against Torulopsis glabrata it was 4 µg/mL (≈ 10.9 µM); in the assay on Microsporum canis it was below 1 µg/mL. Also, the “antimycotic activity compared with compounds (A) and (B)” value in assay [1] was “better antimycotic activity than the compounds (A) and (B)”. Moreover, in the assay on Candida, the “action compared with compounds (A) and (B)” value is “better action than the compounds (A) and (B)”. The “Action (survival on the 6th day post infection)” value in the assay on Candida is reported as “+++++ (very good action = 90% survival on the 6th day post infection)”.

On to `CCSC1(C(O)(C=Cc2ccc(Cl)cc2Cl)Cn2cncn2)CC1` (stereo not shown) [Compound I-16], for which the MIC in the assay on Candida albicans was 8 µg/mL (≈ 20.8 µM); with Trichophyton mentagr. it was below 1 µg/mL; against Aspergillus fumigatus it was 4 µg/mL (≈ 10.4 µM); against Torulopsis glabrata, below 1 µg/mL; in the assay with Microsporum canis, below 1 µg/mL. Further, the “antimycotic activity compared with compounds (A) and (B)” value in assay [1] is “better antimycotic activity than the compounds (A) and (B)”.

With `OC(CCc1ccc(Cl)cc1Cl)(Cn1cncn1)C1(Cl)CC1` (stereo not shown) [Compound I-22], the MIC against Candida albicans was 2 µg/mL (≈ 5.55 µM); in the assay with Trichophyton mentagr., below 1 µg/mL; against Aspergillus fumigatus, below 1 µg/mL; against Torulopsis glabrata it was 2 µg/mL (≈ 5.55 µM); against Microsporum canis, 4 µg/mL (≈ 11.1 µM). In addition, the “antimycotic activity compared with compounds (A) and (B)” value in assay [1] was “better antimycotic activity than the compounds (A) and (B)”.

`OC(CCc1ccc(F)cc1)(Cn1cncn1)C1(Cl)CC1` (stereo not shown) [Compound I-12]: the MIC against Candida albicans was 8 µg/mL (≈ 25.8 µM); against Trichophyton mentagr. it was below 1 µg/mL; against Aspergillus fumigatus, below 1 µg/mL; against Torulopsis glabrata, 32 µg/mL (≈ 103 µM); in the assay on Microsporum canis, 4 µg/mL (≈ 12.9 µM). Also, in assay [1], the “antimycotic activity compared with compounds (A) and (B)” value is “better antimycotic activity than the compounds (A) and (B)”.

`OC(Cn1cncn1)(c1ccc(Cl)cc1)C1(F)CC1` (stereo not shown) [(A), 1-(4-chlorophenyl)-1-(1-fluoro-cycloprop-1-yl)-2-(1,2,4-triazol-1-yl)-ethan-1-ol, reference compound]: the minimal inhibitory concentration (MIC) against Candida albicans, in the assay on Trichophyton mentagr. and against Aspergillus fumigatus was above 64 µg/mL in each case. The antimycotic properties result in the assay on mycoses is listed as “exhibit antimycotic properties”.

For `OC(CCc1ccc(Cl)cc1)(Cn1cncn1)C1(SCc2ccccc2)CC1` (stereo not shown) [Compound I-10], the MIC is 2 µg/mL (≈ 4.83 µM) with Candida albicans; below 1 µg/mL in the assay on Trichophyton mentagr.; 64 µg/mL (≈ 155 µM) against Aspergillus fumigatus; 4 µg/mL (≈ 9.66 µM) against Torulopsis glabrata; 8 µg/mL (≈ 19.3 µM) against Microsporum canis. In addition, the “antimycotic activity compared with compounds (A) and (B)” value in assay [1] was “better antimycotic activity than the compounds (A) and (B)”.

Turning to `Cc1ccc(C=CC(O)(Cn2cncn2)C2(Cl)CC2)cc1` (stereo not shown) [Compound I-28], the MIC with Candida albicans, in the assay with Trichophyton mentagr., with Aspergillus fumigatus, against Torulopsis glabrata and with Microsporum canis was below 1 µg/mL throughout. Moreover, the “antimycotic activity compared with compounds (A) and (B)” value in assay [1] was “better antimycotic activity than the compounds (A) and (B)”.

On to `OC(C=Cc1ccccc1Cl)(Cn1cncn1)C1(Cl)CC1` (stereo not shown) [Compound I-31], for which the MIC against Candida albicans is 8 µg/mL (≈ 24.7 µM); in the assay with Trichophyton mentagr., below 1 µg/mL; against Aspergillus fumigatus, 2 µg/mL (≈ 6.17 µM); with Torulopsis glabrata, 8 µg/mL (≈ 24.7 µM); against Microsporum canis it was 4 µg/mL (≈ 12.3 µM). The “antimycotic activity compared with compounds (A) and (B)” value in assay [1] is “better antimycotic activity than the compounds (A) and (B)”.

As for `OC(CCc1ccccc1Cl)(Cn1cncn1)C1(Cl)CC1` (stereo not shown) [Compound I-19], the MIC is 4 µg/mL (≈ 12.3 µM) with Candida albicans; below 1 µg/mL against Trichophyton mentagr.; 2 µg/mL (≈ 6.13 µM) with Aspergillus fumigatus; 16 µg/mL (≈ 49 µM) with Torulopsis glabrata; 2 µg/mL (≈ 6.13 µM) against Microsporum canis. In addition, the “antimycotic activity compared with compounds (A) and (B)” value in assay [1] is “better antimycotic activity than the compounds (A) and (B)”.

Consider `CSC1(C(O)(CCc2ccc(Cl)cc2)Cn2cncn2)CC1` (stereo not shown) [Compound I-6], for which the MIC was 4 µg/mL (≈ 11.8 µM) against Candida albicans; below 1 µg/mL in the assay on Trichophyton mentagr.; below 1 µg/mL against Aspergillus fumigatus; 16 µg/mL (≈ 47.4 µM) in the assay on Torulopsis glabrata; 2 µg/mL (≈ 5.92 µM) against Microsporum canis. The “antimycotic activity compared with compounds (A) and (B)” value in assay [1] is “better antimycotic activity than the compounds (A) and (B)”. Further, the “action compared with compounds (A) and (B)” value in the assay on Candida is “better action than the compounds (A) and (B)”. Moreover, the “Action (survival on the 6th day post infection)” value with Candida is “+++ (action = 60% survival on the 6th day post infection)”.

In the case of `OC(C=Cc1ccc(OC(F)(F)F)cc1)(Cn1cncn1)C1(Cl)CC1` (stereo not shown) [Compound I-33], the minimum inhibitory concentration (MIC) is 8 µg/mL (≈ 21.4 µM) in the assay on Candida albicans; below 1 µg/mL with Trichophyton mentagr.; below 1 µg/mL in the assay on Aspergillus fumigatus; below 1 µg/mL against Torulopsis glabrata; below 1 µg/mL against Microsporum canis. The “antimycotic activity compared with compounds (A) and (B)” value in assay [1] was “better antimycotic activity than the compounds (A) and (B)”. Also, in the assay on Candida, the “action compared with compounds (A) and (B)” value is “better action than the compounds (A) and (B)”. For the same compound, in the assay on Candida, the “Action (survival on the 6th day post infection)” value is given as “+++++ (very good action = 90% survival on the 6th day post infection)”.
